Data on 72 compounds can be found in PMC9718554, “Discovery of a fragment hit compound targeting D-Ala:D-Ala ligase of bacterial peptidoglycan biosynthesis” (Journal of Enzyme Inhibition and Medicinal Chemistry, 2022).

SMILES strings stand for the structures. Like-named read-outs stand apart in the source and are kept apart here.

The test concerns the target T1, E. coli DdlB enzyme (D-alanine:D-alanine ligase) (Escherichia coli, UniProt P07862).
T1 construct: made in house; host or cells: E. coli
Put plainly: biochemical. The conditions noted are these: for remaining activity at 1900 µM: tested concentration 1.9 mM; for remaining activity at 1800 µM: tested concentration 1.8 mM; for remaining activity at 2100 µM: tested concentration 2.1 mM; for remaining activity at 2300 µM: tested concentration 2.3 mM; for remaining activity at 2400 µM: tested concentration 2.4 mM; for remaining activity at 2000 µM: tested concentration 2.0 mM; for remaining activity at 2200 µM: tested concentration 2.2 mM; for remaining activity at 500 µM: at 0.5 mM; for remaining activity at 3500 µM: tested concentration 3.5 mM; for remaining activity at 1700 µM: tested concentration 1.7 mM. How it is done: The fragment library was assayed in a DdlB inhibition assay, where fragments were tested for their ability to inhibit the D-Ala-adding activity of DdlB ligase. The orthophosphate formed during the enzymatic reaction was measured spectrophotometrically using malachite green reagent.
A recombinant E. coli DdlB enzyme (D-alanine:D-alanine ligase) was expressed in E. coli[11]. […] The final DMSO concentration was 5%. […] All experiments were performed in duplicates. […] IC50 values were determined by measuring the residual activities in quadruplicate at seven different compound concentrations and calculated using in GraphPad Prism (GraphPad Software, San Diego, CA, USA).

The mark [1] stands for this setting: residual activity of DdlB, fragment library screening, tested concentration 2.5 mM, read-out: DdlB RA.
Setting [2] is: residual activity, read-out: DdlB RA.
Setting [3] is: tested concentration 2.5 mM, read-out: DdlB RA.
Where [4] appears, read: read-out: DdlB inhibition, RA (Residual Activity).
[5] abbreviates: fragment library screening, read-out: DdlB RA.

Consider `Cc1cccc(Nc2ncccc2S(N)(=O)=O)c1` [Compound M784-3114], for which, where the note is “read-out: DdlB RA”, the remaining activity at 1900 µM was determined as 94%.

Regarding `O=C(O)c1ccc[nH]1` [FLD034], the remaining activity at 2500 µM under setting [1] came to 100%.

`O=C(O)C1CCCCC1C(=O)NCc1ccc(F)cc1` (stereo not shown) [Compound Y204-1009]: the remaining activity at 1800 µM (read-out: DdlB RA) amounted to 95%.

`Cc1nc2nc(S(N)(=O)=O)nn2c(C)c1C` [Compound 8009-4322]: the remaining activity at 2100 µM (read-out: DdlB RA) stood at 97%.

As for `CC1(C)Cc2nc(N)c(C(=O)O)cc2CO1` [Compound 5545-0125], the remaining activity at 2300 µM under setting [2] stood at 95%.

On to `NS(=O)(=O)Cc1ccccc1Cl` [Compound 8008-0774], for which, for the setting “read-out: DdlB RA”, the remaining activity at 2400 µM is 89%.

With `Oc1nonc1N1CCCC1` [Compound 8018-8553], the remaining activity at 3200 µM (tested concentration 3.2 mM, read-out: DdlB RA) came to 116%.

On to `OC1CCCc2[nH]nc(-c3ccccc3)c21` (stereo not shown) [Compound 8020-5457], for which, for the setting “read-out: DdlB RA”, the remaining activity at 2300 µM stood at 96%.

Turning to `Nc1ncccn1` [FLD133], under setting [1], the remaining activity at 2500 µM is 102%.

For `Clc1ccc(Cl)nn1` [FLD095], the remaining activity at 2500 µM under setting [1] came out at 98%.

With `Cc1cc2nc(COC(=O)C(C)(C)C)cc(=O)n2o1` [Compound G265-0759], the remaining activity at 1900 µM (read-out: DdlB RA) stood at 97%.

`NS(=O)(=O)c1ccc2c(c1)CCN2` [Compound 8018-8673]: under setting [3], the remaining activity at 2500 µM is 80%.

`O=c1[nH]c(O)ncc1S(=O)(=O)N1CCCC1` [Compound D668-0107]: the remaining activity at 2000 µM under setting [2] came to 94%.

For `CCCCC(CC)n1nc(O)cc1N` (stereo not shown) [Compound D068-0219], the remaining activity at 2500 µM under setting [3] was 100%.

As for `O=C1CC(c2ccccc2)c2snc(C(=O)O)c2N1` (stereo not shown) [Compound 8020-2209], the remaining activity at 1800 µM under setting [2] was 94%.

Regarding `O=C(O)c1ccc(F)cc1` [FLD062], under setting [1], the remaining activity at 2500 µM came out at 98%.

Consider `CC1CCN(C(=O)C2N(C(C)C)C(=O)C23CCCC3)CC1` (stereo not shown) [Compound T964-0245], for which the remaining activity at 2100 µM under setting [2] came out at 95%.

Consider `CCCNC(=O)N1CCC(F)(C(=O)NC2CC2)CC1` [Compound T502-0828], for which, under setting [2], the remaining activity at 1800 µM was determined as 97%.

`CC1=CC(C)(C)N(C)c2cc(O)ccc21` [Compound Y021-0895]: the remaining activity at 2700 µM (tested concentration 2.7 mM, read-out: DdlB RA) is 88%.

For `O=C(O)Cc1ccsc1` [FLD003], the remaining activity at 2500 µM under setting [1] came to 100%.

As to `CCOc1c(Nc2ccc(F)cc2)c(=O)c1=O` [Compound G317-0061], the remaining activity at 2100 µM (read-out: DdlB RA) came out at 96%.

As to `CC1CN(C)C(C)CC1n1nc(O)cc1N` (stereo not shown) [Compound D068-0221], the remaining activity at 2200 µM (read-out: DdlB RA) turned out to be 101%.

Turning to `NS(=O)(=O)c1ccc(CNC(=O)C2CCCC2)cc1` [Compound Y207-3980], the remaining activity at 1800 µM (read-out: DdlB RA) was found to be 93%.

Take `C=CCN1C(=O)NOC(N)=C1C#N` [Compound 8017-4055]: the remaining activity at 2800 µM (tested concentration 2.8 mM, read-out: DdlB RA) came out at 92%.

Regarding `O=C(c1ccc(O)cc1)c1ccc(O)cc1` [FLD093], the remaining activity at 2500 µM under setting [1] was 97%.

For `O=c1[nH]c2ccc(S(=O)(=O)N3CCCCC3)cc2o1` [Compound K893-0198], the remaining activity at 1800 µM (read-out: DdlB RA) amounted to 100%.

With `O=C(O)c1cc2nccc(-c3cccs3)n2n1` [Compound 18, 7-(Thiophen-2-yl)pyrazolo[1,5-a]pyrimidine-2-carboxylic acid], for the setting “at 1.5 mM, read-out: DdlB inhibition, RA (Residual Activity)”, the remaining activity at 1500 µM is 87%. The remaining activity at 5000 µM (at 5 mM, read-out: DdlB inhibition, RA (Residual Activity)) amounted to 69%.

Take `O=C(O)c1ccc(-c2cnco2)cc1` [FLD026]: under setting [1], the remaining activity at 2500 µM stood at 87%.

Take `Cc1nn(-c2ccccn2)c2c1C(=O)C(C#N)CC2` (stereo not shown) [Compound 8015-7286]: the remaining activity at 2200 µM (read-out: DdlB RA) was found to be 83%.

Consider `COc1cccc(C(=O)Nc2ccccc2C(=O)O)c1` [Compound Y030-1668], for which the remaining activity at 1800 µM under setting [2] was found to be 97%.

`O=C1Cc2cc([N+](=O)[O-])ccc2N1` [FLD155]: under setting [1], the remaining activity at 2500 µM was 99%.

For `Brc1ccc(-c2nc[nH]n2)cc1` [Compound 8020-5438], the remaining activity at 2200 µM under setting [2] is 88%.

In the case of `N/C(=N\O)c1cnn2c(-c3cccc(C(F)(F)F)c3)ccnc12` [Compound 23, (Z)-N'-Hydroxy-7–(3-(trifluoromethyl)phenyl)pyrazolo[1,5-a]pyrimidine-3-carboximidamide], the remaining activity at 500 µM under setting [4] is 94%.

In the case of `O=C(O)Cn1nnc(O)n1` [Compound 8013-5932], under “read-out: DdlB RA”, the remaining activity at 3500 µM was determined as 86%.

Take `O=C(O)CC1CCN(c2ccc(Cl)nn2)CC1` [Compound Y043-2007]: the remaining activity at 2000 µM under setting [5] amounted to 90%.

`O=C(O)c1ccccc1NC(=O)C(F)(F)F` [Compound 0931-0537]: the remaining activity at 2100 µM under setting [2] is 104%.

As for `CCN1CCN(c2ccc(NC(C)=O)c(C(=O)O)c2)CC1` [Compound F687-0683], under setting [2], the remaining activity at 1700 µM was determined as 94%.

On to `Cc1nc(-c2ccncc2)sc1C(=O)O` [FLD024], for which the remaining activity at 2500 µM under setting [1] amounted to 96%.

Consider `Nc1cccc(CC(=O)O)c1` [FLD131], for which the remaining activity at 2500 µM under setting [1] stood at 97%.

Turning to `O=C(O)c1ccc(-n2ccnc2)cc1` [FLD020], under setting [1], the remaining activity at 2500 µM was found to be 96%.

`Cc1cc(C)[nH]n1` [FLD130]: the remaining activity at 2500 µM under setting [1] turned out to be 100%.

With `CC(C)CCN1C[C@@H]2CN(C)C(=O)[C@H](C)N2C1=O` [SB41-0167], for the setting “read-out: DdlB RA”, the remaining activity at 2400 µM was determined as 85%.

In the case of `O=C(O)c1cc(-c2ccccc2Cl)on1` [Compound D717-0173], the remaining activity at 2200 µM under setting [2] worked out at 107%.

Consider `Nc1cccc(C(F)(F)F)n1` [FLD091], for which the remaining activity at 2500 µM (read-out: DdlB RA) amounted to 100%.

Take `O=C(O)c1cccc2c1C(=O)N(Cc1ccncc1)C2` [Compound 8017-6147]: the remaining activity at 1900 µM under setting [5] is 90%.

For `O=C(O)C1CCN(c2ccc(C(F)(F)F)cn2)CC1` [FF30-0262], the remaining activity at 1800 µM under setting [5] is 92%.

For the compound `Cc1cc(Cl)ccc1O` [FLD037], the remaining activity at 2500 µM under setting [1] came out at 85%.

In the case of `CNC(=O)CN1C(=O)CSC1c1ccc(F)cc1` (stereo not shown) [Compound V022-4411], where the note is “read-out: DdlB RA”, the remaining activity at 1900 µM came to 92%.

For `CCOC(=O)c1cnn2c(-c3ccc(C)c(C)c3)ccnc12` [Compound 20, Ethyl 7–(3,4-dimethylphenyl)pyrazolo[1,5-a]pyrimidine-3-carboxylate], under setting [4], the remaining activity at 500 µM worked out at 100%.

With `N#CCc1ccc(C(F)(F)F)cc1` [FLD116], the remaining activity at 2500 µM under setting [1] is 94%.

Take `O=C(O)CCC(=O)N1CCO[C@H](c2ccccc2)C1` [Compound Y044-6579]: under setting [5], the remaining activity at 1900 µM stood at 93%.

Turning to `Cc1ccc(-c2ccnc3c(C(=O)O)cnn23)cc1C` [Compound 11, 7–(3,4-Dimethylphenyl)pyrazolo[1,5-a]pyrimidine-3-carboxylic acid], the remaining activity at 500 µM under setting [4] was determined as 100%.

On to `Nc1n[nH]c(-c2ccccc2C(=O)O)n1` [Compound 8020-6003], for which the remaining activity at 2500 µM under setting [3] is 98%.

Regarding `CCC(=O)N1CCC(CC(=O)N2CCOCC2)C1` (stereo not shown) [Compound S421-0882], the remaining activity at 2000 µM (read-out: DdlB RA) is 70%.

As to `COc1c(C)[nH]ccc1=O` [FLD135], under setting [1], the remaining activity at 2500 µM was 96%.

As for `CC(=O)c1ccc([N+](=O)[O-])cc1` [FLD015], the remaining activity at 2500 µM under setting [1] is 100%.

With `S=c1[nH]ncs1` [FLD079], the remaining activity at 2500 µM under setting [1] came to 81%.

`Nc1ccc(Br)cn1` [FLD145]: the remaining activity at 2500 µM under setting [1] came out at 92%.

For `O=C(O)c1cc(S(=O)(=O)N2CCCC2)ccc1O` [Compound 8019-7119], under setting [2], the remaining activity at 1800 µM turned out to be 97%.

For the compound `N#Cc1oc2ccccc2c1N` [Compound 8019-4478], the remaining activity at 3500 µM (residual activity of DdlB, fragment library screening, read-out: DdlB RA) amounted to 85%.

As for `Cc1nc(C(=O)O)cs1` [FLD100], under setting [1], the remaining activity at 2500 µM was 93%.

On to `O=C(O)C[C@H]1NC(=O)N(CCc2cccc(F)c2)C1=O` [Compound Y042-2983], for which the remaining activity at 1800 µM under setting [5] was found to be 93%.

As for `O=C1CSCC(C(=O)O)N1` (stereo not shown) [FF01-5725], for the setting “tested concentration 3.1 mM, read-out: DdlB RA”, the remaining activity at 3100 µM worked out at 107%.

With `C#Cc1cccc(OC)c1` [FLD182], under setting [1], the remaining activity at 2500 µM was found to be 91%.

As to `COCC1CN(C(C)=O)CC12CCNCC2` (stereo not shown) [Compound S635-3083], the remaining activity at 1900 µM (read-out: DdlB RA) was 93%.

In the case of `Cc1cccc(CS(=O)(=O)N2CCCC2)c1` [Compound Y300-2952], the remaining activity at 2300 µM (read-out: DdlB RA) was found to be 98%.

With `Cc1nc(-c2ccc(C(=O)O)cc2)cs1` [FLD018], the remaining activity at 2500 µM under setting [1] stood at 99%.

`Cc1ncc(CO)c(C2CCCN(C(=O)C(C)C)C2)n1` (stereo not shown) [SA04-1071]: under setting [2], the remaining activity at 2200 µM amounted to 95%.

In the case of `O=C(O)c1cc(Br)cc(Br)c1O` [Compound Y501-3736], the remaining activity at 1700 µM (read-out: DdlB RA) was -39%.

Consider `Nn1cnn(Cc2ccc([N+](=O)[O-])cc2)c1=O` [Compound 8012-9514], for which, where the note is “read-out: DdlB RA”, the remaining activity at 2100 µM was 106%.

For the compound `CC1CCCCC1NS(=O)(=O)c1ccccc1` (stereo not shown) [Compound Y206-4071], the remaining activity at 2200 µM (read-out: DdlB RA) was found to be 91%.

As to `CCOC(=O)N1CCNCC1` [FLD191], under setting [1], the remaining activity at 2500 µM is 100%.
